Results reported in patent US7838263B2, “Methods of identifying a plant with an Nsf1 locus” (E. I. du Pont de Nemours and Company, priority 2006, dated 2010).

Columns and labels:
[1] = system: transgenic soybean plants comprising the maize Nsf1 gene; assay: T1 transgenic soybean plant herbicide efficacy testing; assay type: in vivo, Glycine max; details: sprayed at V3 stage; for tolerance of one of the two T1 events compared to the controls: first event, 8 DAT and 15 DAT; for tolerance of the second T1 event compared to the controls: 15 DAT
Procedure: Two events from the T0 generation were advanced to the T1 generation for additional herbicide efficacy testing of the Nsf1 gene. Replicates of two controls, as well as T1 plants, were grown in greenhouse experiments and sprayed with mesotrione at one of two rates (200 g/ha or 50 g/ha), nicosulfuron (70 g/ha), or rimsulfuron (35 g/ha) at the V3 growth stage. All herbicide treatments were applied with 1% w/w modified seed oil adjuvant in a spray volume of 374 L/ha. Plants were rated for herbicide response at eight days after application using a 1 to 9 score as used in the T0 testing.
An expanded herbicide efficacy test was developed in a second T1 plant experiment for the same two events advanced from the T0 generation. […] All herbicide treatments were applied in a spray volume of 287 L/ha. Isoxaflutole (140 g/ha), topramezone (140 g/ha), and sulcotrione (140 g/ha) were applied with 1% w/w modified seed oil adjuvant. Diuron treatments (560 g/ha) were applied with 1% w/w petroleum crop oil adjuvant. Acifluorfen (4480 g/ha), sulfentrazone (140 g/ha), flumioxazine (140 g/ha), and dicamba (280 g/ha) were applied with 0.25% w/w nonionic surfactant. Rimsulfuron (35 g/ha) treatments were applied with 0.5% w/w basic blend adjuvant. At eight and fifteen days after treatment, plants were rated visually for crop injury using a 0 to 100 scale (0=no injury to 100=dead plant).

[2] = system: T0 soybean plants transformed with the Nsf1 gene; assay: T0 transgenic soybean plant herbicide response, visual score 1 to 9; assay type: in vivo, Glycine max
Excerpt: Two different constructs comprising the Nsf1 gene were created to examine herbicide efficacy of the gene when transformed into soybean. The Nsf1 constructs were co-bombarded with a 35S:HYG insert to permit event selection using hygromycin. At the V2 to V6 growth stage, a total of 127 T0 plants were sprayed with 35 g/ha rimsulfuron. All rimsulfuron treatments were applied with 0.2% w/w nonionic surfactant in a spray volume of 287 L/ha. In addition to the T0 plants, replications of three different controls were included—two positive and one negative. Individual plants were evaluated for herbicide response at ten days after treatment, and assigned a visual response score from 1 to 9 (1=dead plant to 9=no effect observed). Based upon high tolerance scores to the initial rimsulfuron spray, five T0 events were sprayed with an additional 35 g/ha rimsulfuron. Plants were rated for visual tolerance using a 1 to 9 score at ten days after the second application.

corn lines = assay: Testing of maize plants for sensitivity to nicosulfuron; assay type: in vivo, Zea mays; details: misted with 2.3 mM nicosulfuron, 0.5% v/v Kinetic surfactant, approximately V3 stage
Procedure: In order to determine if the Nsf1 allele was consistent across maize lines, three corn lines with unknown sensitivity levels to nicosulfuron were tested to determine their reaction and then evaluate their sequences. Plants were misted with a 2.3 mM nicosulfuron, 0.5% v/v Kinetic surfactant solution at approximately the V3 stage. Both known resistant and sensitive lines were also grown and sprayed as controls. […] Three corn lines with unknown sensitivity levels to nicosulfuron were tested to determine their reaction. Plants were misted with a 2.3 mM nicosulfuron, 0.5% v/v Kinetic surfactant solution at approximately the V3 stage. Both known resistant and sensitive lines were also grown and sprayed as controls.

SMILES | tolerance of one of the two T1 events compared to the controls [1] | tolerance of the second T1 event compared to the controls [1] | also measured
CS(=O)(=O)c1ccc(C(=O)C2C(=O)CCCC2=O)c(Cl)c1 [sulcotrione] | significantly better tolerance | significantly better tolerance | –
CCS(=O)(=O)c1cccnc1S(=O)(=O)NC(=O)Nc1nc(OC)cc(OC)n1 [rimsulfuron] | significantly better tolerance | significantly better tolerance | T0 events with improved level of tolerance after an additional application ([2]; after an additional application of 35 g/ha rimsulfuron): Three of 51; T0 events with improved tolerance compared to the controls ([2]; ten days after treatment with 35 g/ha rimsulfuron, V2 to V6 stage): 4 of 51
Cc1nn(-c2cc(NS(C)(=O)=O)c(Cl)cc2Cl)c(=O)n1C(F)F [sulfentrazone] | significantly better tolerance | significantly better tolerance | –
COc1c(Cl)ccc(Cl)c1C(=O)O [dicamba] | significantly better tolerance | significantly better tolerance | –
C#CCN1C(=O)COc2cc(F)c(N3C(=O)C4=C(CCCC4)C3=O)cc21 [flumioxazine] | significantly better tolerance | – | –
CN(C)C(=O)Nc1ccc(Cl)c(Cl)c1 [diuron] | significantly better tolerance | – | –
CS(=O)(=O)c1cc(C(F)(F)F)ccc1C(=O)c1cnoc1C1CC1 [isoxaflutole] | significantly better tolerance | significantly better tolerance | –
COc1cc(OC)nc(NC(=O)NS(=O)(=O)c2ncccc2C(=O)N(C)C)n1 [nicosulfuron] | – | – | reaction of line A188 to nicosulfuron (corn lines; line A188): sensitive; reaction of line Black Mexican Sweet (BMS) to nicosulfuron (corn lines; line BMS): resistant; reaction of line Q66 to nicosulfuron (corn lines; line Q66): resistant
Cc1c(C(=O)c2cnn(C)c2O)ccc(S(C)(=O)=O)c1C1=NOCC1 [topramezone] | significantly better tolerance | significantly better tolerance | –
CS(=O)(=O)c1ccc(C(=O)C2C(=O)CCCC2=O)c([N+](=O)[O-])c1 [mesotrione] | significantly better tolerance | significantly better tolerance | –
O=C(O)c1cc(Oc2ccc(C(F)(F)F)cc2Cl)ccc1[N+](=O)[O-] [acifluorfen] | significantly better tolerance | significantly better tolerance | –
